The text below walks through data of PMC12073298, “Design, Synthesis, and Biological Evaluation of Naphthoquinone Salts as Anticancer Agents” (Molecules, 2025).

Assay [1] has as its system normal endometrial stromal cells (MAD11). Kind of assay: MTT cell viability assay, MAD11 cells. Type of assay: cell-based, human. The conditions noted are these: MAD11 non-cancerous cells, n = 3 biological replicates, read-out: Mean IC50 (μM) MAD11 ± SD. As to the method:
(§1) The cytotoxic effects of the synthesized salt compounds were assessed against human endometrial cancer cells (HEC1A) and normal endometrial stromal cells (MAD11) using the MTT cell viability assay. BH10 was used as the reference compound.
(§2) Reagents and equipment: phosphate-buffered saline (PBS) (Sigma Aldrich, St. Louis, MO, USA), 10× Trypsin-EDTA solution (Sigma Aldrich, 59418C), Dulbecco’s Modified Eagle’s Medium (Sigma Aldrich), foetal bovine serum (FBS), and 100× penicillin-streptomycin solution (Sigma Aldrich P4333). The MTT reagent was prepared by dissolving 5 mg/mL MTT powder in sterile PBS, followed by filtration, whereas the MTT solvent contained 4 mM HCl and 0.1% Nonidet P-40 in isopropanol. Dimethyl sulfoxide (DMSO) was also sourced from Sigma Aldrich. Absorbance measurements were acquired using Kaleido 1.0 software coupled with an EnSight™ HH3400 Multimode Plate Reader (PerkinElmer, Waltham, MA, USA). HEC-1-A endometrial cancer cells were obtained from ATCC, while MAD11 endometrial stromal cells were provided by Dr. Hui Li (University of Virginia). MAD11 cells, derived from non-cancerous donors, were immortalized via human telomerase reverse transcriptase (hTERT).
(§3) Method: The methods were adapted from Byrne et al. (2014). Cells were cultured in DMEM supplemented with 10% FBS and 1% Pen-Strep solution (100 U/mL penicillin and 0.1 mg/mL streptomycin). Upon reaching ~70% confluence, the cells were washed with sterile PBS and detached using a 1× trypsin-EDTA solution. The cells were then resuspended in culture media, counted, and seeded into sterile 96-well tissue culture plates (2500 cells per well for MAD11; 5000 cells per well for HEC-1-A). The cells were incubated at 37 °C with 5% CO2 for 24 h prior to drug treatment. Drugs were serially diluted in culture medium to final concentrations of 100, 50, 25, 12.5, 6.3, 3.1, 1.6, and 0.8 µM per well and applied in triplicate. For compounds 7a–f and 15, as their IC₅₀ values were below 0.8 µM, an additional set of three biological replicates was conducted using a lower concentration range (500, 250, 125, 63, 31, 16, 8, and 4 nM). To minimize variations due to DMSO (vehicle), both drug dilutions and control wells received the same final concentration of DMSO. After 48 h of incubation at 37 °C with 5% CO2, cell viability was assessed by adding 20 µL/well of MTT reagent for 3 h. Supernatants were aspirated, and formazan crystals were dissolved in MTT solvent before absorbance was measured at 590/620 nm using an EnSight™ HH3400 Multimode Plate Reader. Cell viability was expressed as a percentage of the vehicle (DMSO-treated) control, with results reported as mean ± SEM from three independent experiments. IC50 values were determined using GraphPad Prism 9.
(Tetrazolium assays rely on reduction of a dye to a coloured formazan, in cell work by metabolically active cells.)

Assay [2] concerns human endometrial cancer cells (HEC1A). Kind of assay: MTT cell viability assay, HEC1A cells. Type of assay: cell-based. The following applies: for IC50: 48 h, HEC1A cells, MTT, n = 3 biological replicates, read-out: Mean IC50 (μM) HEC1A ± SD; for Selectivity Ratio: IC50 value from MAD11 cells divided by the IC50 value from HEC1A cells. As to the method: as §1, §2, §3
For assay [3] the test system is unchanged. The following applies: previous study, cell line not printed here; read-out: IC50 (anticancer potency of starting materials); cited from earlier work.

Molecules are shown by their SMILES. Where two headings read alike, the source gives them in different places.

For `Cc1n(C)c2c([n+]1C)C(=O)c1ccncc1C2=O.[Br-]` [Compound 7f, 1,2,3-Trimethyl-4,9-dioxo-4,9-dihydro-3H-imidazo [4,5-g]isoquinolin-1-ium bromide], the IC50 (commonly the concentration that inhibits the measured activity by half) in assay [1] (Homo sapiens, MAD11, 48 h) was 4.8 ± 0.327 µM; in assay [2] (Homo sapiens, HEC-1-A) it was 0.472 ± 0.0378 µM. For the same molecule, the “loss in potency relative to 7a” value in assay [2] (Figure 3, SAR summary) is reported as ~ 50 fold. In addition, in assay [2], the “Selectivity Ratio” value amounted to 10.16.

As for `C[N+]1(CCNC2=C(Br)C(=O)c3ccccc3C2=O)CCOCC1.[I-]` [Compound 2g, 4-(2-((3-Bromo-1,4-dioxo-1,4-dihydronaphthalen-2-yl)amino)ethyl)-4-methylmorpholin-4-ium iodide], the IC50 in assay [1] (Homo sapiens, MAD11, 48 h) is more than 100 µM; in assay [2] (Homo sapiens, HEC-1-A), 23.8 ± 4.17 µM. Also, the “Selectivity Ratio” value in assay [2] was more than 4.20.

On to `C[N+](C)(C)CCNC1=C(Cl)C(=O)c2ccccc2C1=O` [Compound 2c, 2-((3-Chloro-1,4-dioxo-1,4-dihydronaphthalen-2-yl)amino)-N,N,N-trimethylethan-1-aminium iodide], for which the concentration for half-maximal inhibition (IC50) in assay [1] (Homo sapiens, MAD11, 48 h) was more than 100 µM; in assay [2] (Homo sapiens, HEC-1-A) it was 97.2 ± 8.2 µM.

Turning to `CC1=C(NCCN2CCOCC2)C(=O)c2ccccc2C1=O` [Compound 1h], the IC50 in assay [3] was more than 40 µM.

On to `C[N+]1(CCCNC2=CC(=O)c3ccccc3C2=O)CCCCC1` [Compound 2b, 1-(3-((1,4-Dioxo-1,4-dihydronaphthalen-2-yl)amino)propyl)-1-methylpiperidin-1-ium iodide], for which the IC50 was more than 100 µM in assay [1] (Homo sapiens, MAD11, 48 h) and more than 100 µM in assay [2] (Homo sapiens, HEC-1-A).

Consider `C[N+]1(CCNC2=C(Cl)C(=O)c3ccccc3C2=O)CCCCC1.[I-]` [Compound 2d, 1-(2-((3-Chloro-1,4-dioxo-1,4-dihydronaphthalen-2-yl)amino)ethyl)-1-methylpiperidin-1-ium iodide], for which the IC50 is more than 100 µM in assay [1] (Homo sapiens, MAD11, 48 h) and 58.8 ± 3.01 µM in assay [2] (Homo sapiens, HEC-1-A). Also, the “Selectivity Ratio” value in assay [2] is recorded as more than 1.70.

`C[N+]1(CCn2cc(Cn3c(C(F)(F)F)nc4c3C(=O)c3ccccc3C4=O)nn2)CCOCC1.[I-]` [Compound 17a, 4-(2-(4-((4,9-Dioxo-2-(trifluoromethyl)-4,9-dihydro-1H-naphtho [2,3-d]imidazol-1-yl)methyl)-1H-1,2,3-triazol-1-yl)ethyl)-4-methylmorpholin-4-ium iodide]: the IC50 in assay [1] (Homo sapiens, MAD11, 48 h) is 111 ± 45 µM; in assay [2] (Homo sapiens, HEC-1-A), 11.2 ± 2.63 µM. In addition, in assay [2], the “Selectivity Ratio” value was determined as 9.93.

In the case of `C[N+](C)(C)CCCNC1=C(Cl)C(=O)c2ccccc2C1=O` [Compound 2e, 3-((3-Chloro-1,4-dioxo-1,4-dihydronaphthalen-2-yl)amino)-N,N,N-trimethylpropan-1-aminium iodide], the half-maximal inhibitory concentration (IC50) is more than 100 µM in assay [1] (Homo sapiens, MAD11, 48 h) and more than 100 µM in assay [2] (Homo sapiens, HEC-1-A).

Take `O=C1C=C(NCCN2CCOCC2)C(=O)c2ccccc21` [Compound 1a]: the IC50 in assay [3] was more than 40 µM.

`Cc1nc2c(n1CCC[N+]1(C)CCCCC1)C(=O)c1ccccc1C2=O.[I-]` [Compound 19, 1-Methyl-1-(3-(2-methyl-4,9-dioxo-4,9-dihydro-1H-naphtho [2,3-d]imidazol-1-yl)propyl) piperidin-1-ium iodide]: the IC50 stood at 40.8 ± 14.1 µM in assay [1] (Homo sapiens, MAD11, 48 h) and 6.35 ± 1.41 µM in assay [2] (Homo sapiens, HEC-1-A). In addition, the “Selectivity Ratio” value in assay [2] was 6.42.

`Cn1c[n+](C)c2ccccc21` [Compound 13, 1,3-Dimethyl-1H-benzo[d]imidazol-3-ium iodide]: the IC50 in assay [1] (Homo sapiens, MAD11, 48 h) was more than 100 µM; in assay [2] (Homo sapiens, HEC-1-A), more than 100 µM.

For the molecule `Cc1n(C)c2ccccc2[n+]1C` [Compound 11, 1,2,3-Trimethyl-1H-benzo[d]imidazol-3-ium iodide], the IC50 in assay [1] (Homo sapiens, MAD11, 48 h) was more than 100 µM; in assay [2] (Homo sapiens, HEC-1-A), more than 100 µM.

For the molecule `Cc1n(C)c2cc3ccccc3cc2[n+]1C.[I-]` [Compound 9, 1,2,3-Trimethyl-1H-naphtho [2,3-d]imidazol-3-ium iodide], the IC50 in assay [1] (Homo sapiens, MAD11, 48 h) amounted to 64.6 ± 14 µM; in assay [2], 23.9 ± 2.97 µM; in assay [2] (Homo sapiens, HEC-1-A) it was 24.9 µM. In addition, the “Selectivity Ratio” value in assay [2] stood at 2.70.

For `Cc1n(C)c2c([n+]1C)C(=O)c1cc([N+](=O)[O-])ccc1C2=O.[Br-]` [Compound 7c, 1,2,3-Trimethyl-6-nitro-4,9-dioxo-4,9-dihydro-1H-naphtho [2,3-d]imidazol-3-ium bromide], the IC50 in assay [1] (Homo sapiens, MAD11, 48 h) turned out to be 0.0685 ± 0.0061 µM; in assay [2] (Homo sapiens, HEC-1-A), 0.0288 ± 0.0014 µM. The “Selectivity Ratio” value in assay [2] was found to be 2.37.

For the molecule `Cc1n(C)c2c([n+]1C)C(=O)c1c(cccc1[N+](=O)[O-])C2=O.[Br-]` [Compound 7b, 1,2,3-Trimethyl-5-nitro-4,9-dioxo-4,9-dihydro-1H-naphtho [2,3-d]imidazol-3-ium bromide], the IC50 in assay [1] (Homo sapiens, MAD11, 48 h) was 0.952 ± 0.215 µM; in assay [2] (Homo sapiens, HEC-1-A) it was 0.023 ± 0.0033 µM. In addition, in assay [2], the “Selectivity Ratio” value was 41.43.

As for `C[N+]1(CCCNC2=C(Cl)C(=O)c3ccccc3C2=O)CCOCC1` [Compound 2f, 4-(3-((3-Chloro-1,4-dioxo-1,4-dihydronaphthalen-2-yl)amino)propyl)-4-methylmorpholin-4-ium iodide], the IC50 in assay [1] (Homo sapiens, MAD11, 48 h) was more than 100 µM; in assay [2] (Homo sapiens, HEC-1-A), more than 100 µM.

In the case of `C[N+]1(CCCn2cc(Cn3c(C(F)(F)F)nc4c3C(=O)c3ccccc3C4=O)nn2)CCCCC1.[I-]` [Compound 17c, 1-(3-(4-((4,9-Dioxo-2-(trifluoromethyl)-4,9-dihydro-1H-naphtho [2,3-d]imidazol-1-yl)methyl)-1H-1,2,3-triazol-1-yl)propyl)-1-methylpiperidin-1-ium iodide], the IC50 was more than 100 µM in assay [1] (Homo sapiens, MAD11, 48 h) and 5.62 ± 1.43 µM in assay [2] (Homo sapiens, HEC-1-A). In addition, the “Selectivity Ratio” value in assay [2] is more than 17.79.

On to `C[N+]1(CCn2cc(Cn3c(C(F)(F)F)nc4c3C(=O)c3ccccc3C4=O)nn2)CCCCC1.[I-]` [Compound 17b, 1-(2-(4-((4,9-Dioxo-2-(trifluoromethyl)-4,9-dihydro-1H-naphtho [2,3-d]imidazol-1-yl)methyl)-1H-1,2,3-triazol-1-yl)ethyl)-1-methylpiperidin-1-ium iodide], for which the IC50 was more than 100 µM in assay [1] (Homo sapiens, MAD11, 48 h) and 6.79 ± 1 µM in assay [2] (Homo sapiens, HEC-1-A). For the same molecule, the “Selectivity Ratio” value in assay [2] is more than 14.73.

For `Cc1n(C)c2c([n+]1C)C(=O)c1ccccc1C2=O.[I-]` [Compound 15, 1,2,3-Trimethyl-4,9-dioxo-4,9-dihydro-1H-naphtho [2,3-d]imidazol-3-ium iodide], the IC50 stood at 0.154 ± 0.0109 µM in assay [1] (48 h) and 0.0135 ± 0.0009 µM in assay [2]. The “Selectivity Ratio” value in assay [2] is listed as 11.43.

Turning to `Cc1ccc2c(c1)C(=O)c1c([n+](C)c(C)n1C)C2=O` [Compound 7e, 1,2,3,7-Tetramethyl-4,9-dioxo-4,9-dihydro-1H-naphtho [2,3-d]imidazol-3-ium bromide], the IC50 in assay [1] (Homo sapiens, MAD11, 48 h) was 0.101 ± 0.0124 µM; in assay [2] (Homo sapiens, HEC-1-A), 0.0149 ± 0.0012 µM.

Turning to `Cc1n(C)c2c([n+]1C)C(=O)c1ccccc1C2=O.[Br-]` [Compound 7a, 1,2,3-Trimethyl-4,9-dioxo-4,9-dihydro-1H-naphtho [2,3-d]imidazol-3-ium bromide], the IC50 was found to be 0.0657 ± 0.00641 µM in assay [1] (48 h) and 0.00953 ± 0.0007 µM in assay [2] (Homo sapiens, HEC-1-A). For the same molecule, the “Selectivity Ratio” value in assay [2] was determined as 6.89.

`C[N+]1(CCNC2=CC(=O)c3ccccc3C2=O)CCOCC1.[I-]` [Compound 2a, 4-(2-((1,4-Dioxo-1,4-dihydronaphthalen-2-yl)amino)ethyl)-4-methylmorpholin-4-ium iodide]: the IC50 in assay [1] (Homo sapiens, MAD11, 48 h) was more than 100 µM; in assay [2] (Homo sapiens, HEC-1-A), 21.1 ± 2.99 µM. Further, the “Selectivity Ratio” value in assay [2] is more than 4.73.

Consider `COc1ccc2c(c1)C(=O)c1c(n(C)c(C)[n+]1C)C2=O` [Compound 7d, 6-Methoxy-1,2,3-trimethyl-4,9-dioxo-4,9-dihydro-1H-naphtho [2,3-d]imidazol-3-ium bromide], for which the IC50 in assay [1] (Homo sapiens, MAD11, 48 h) is 0.194 ± 0.0191 µM; in assay [2] (Homo sapiens, HEC-1-A) it was 0.0256 ± 0.0021 µM.

Regarding `CC1=C(NCC[N+]2(C)CCOCC2)C(=O)c2ccccc2C1=O` [Compound 2h, 4-Methyl-4-(2-((3-methyl-1,4-dioxo-1,4-dihydronaphthalen-2-yl)amino)ethyl)morpholin-4-ium iodide], the IC50 in assay [1] (Homo sapiens, MAD11, 48 h) is more than 100 µM; in assay [2] (Homo sapiens, HEC-1-A) it was 95.5 ± 14.7 µM.
